# Reference: publication PMC7496275, “Pentathiepins: A Novel Class of Glutathione Peroxidase 1 Inhibitors that Induce Oxidative Stress, Loss of Mitochondrial Membrane Potential and Apoptosis in Human Cancer Cells” (Chemmedchem, 2020)
# Legend:
# pBR322 plasmid = assay: Cleavage of supercoiled plasmid DNA; conditions: 5 μM, 20 h, 37 °C
# Experimental: To assess the potential DNA‐cleaving activity of 4 a plasmid cleavage assay was performed. This method makes use of the different mobilities that plasmids display during electrophoretic separation processes in an agarose gel. An intact supercoiled plasmid has the highest mobility due to its compactness, open circular plasmids (ocDNA), e. g. plasmids with a single strand break, present a lower mobility due to increased friction of this less compact DNA construct. Commercially available DNA plasmids usually present ratios of 95 % supercoiled and 5 % ocDNA. Upon treatment with DNA‐damaging agents this ratio will be shifted towards a higher amount of ocDNA due to single strand breaks, or even linearized DNA in case double strand breaks are induced. […]
# Cleavage of supercoiled plasmid DNA: For this assay, 0.3 μg pBR322 plasmid (Thermo Fisher) were incubated with either 0.1 % DMF or 5 μM 4 with or without 2 mM glutathione (GSH) in a 50 mM sodium phosphate buffer at pH 7.5 for 20 h in a 37 °C water bath. Afterwards, the samples were separated on a 1 % agarose (Geneon) gel at 80 V (5 V/cm) for 2 h, stained with GelRed (Biotium) and the image captured and bands quantified using ImageLab (Biorad). The resulting data was analyzed and visualized with Prism 7 (GraphPad).
# HAP-1 cells = assay: Alkaline comet assay; type: cell-based, human; conditions: 25 μM, 15 min at 0 °C
# Experimental: To assess the induction of DNA strand breaks by pentathiepin 4 the Comet Assay was used. The SISO and HAP‐1 cell lines were treated with either 1 % DMF (solvent control), 20 μM H2O2 (positive control) or 25 μM 4 for 15 min at 0 °C. The DNA in the comet head corresponds to still intact genomic DNA while the tail forms due to the damage of nuclear DNA (Figure 9B). […] For HAP‐1 cells a greater reduction of intact DNA from 86 % in control cells to 66 % in pentathiepin‐incubated cells was observed.
# Alkaline comet assay to assess induction of DNA strand breaks: The method was adapted from Olive and Banath.40 The alkaline protocol allows for the detection of single and double strand breaks as well as alkali‐labile sites and is based on the different electrophoretic mobility of intact and damaged nuclear DNA. […] The induction of strand breaks creates free charged ends that drift out and form the characteristic comet tail. The percentage of DNA that is located in the comet head was selected as descriptor, which corresponds to the amount of still intact genomic DNA.
# Briefly, SISO and HAP‐1 cells were harvested by trypsinization and a single cell suspension with 50 000 cells per mL PBS was prepared. Per condition 50 000 cells were incubated on ice (to impair DNA repair) with either the solvent control DMF (1.0 %), 20 μM H2O2 or 25 μM 4 for 15 min. Afterwards, 400 μL of the cell suspension were mixed with 1.2 mL 1 % low melting point agarose (Carl Roth, Germany) at 40 °C and evenly distributed on agarose‐precoated (GeneOn, Germany) glass slides (Thermo Fisher). After 3 min polymerization the slides were horizontally submerged in lysis buffer (1.2 M NaCl (Carl Roth, Germany), 0.1 % N‐Lauryl‐Sarcosinate (Merck), 0.1 M Na‐EDTA, 0.26 M NaOH) and placed at 4 °C overnight. Before electrophoresis at 0.6 V/cm for 25 min the slides were rinsed three times in rinse/electrophoresis buffer (0.002 M Na‐EDTA, 0.03 M NaOH). Afterwards, the slides were neutralized in distilled water and subsequently stained with 250 μL of a 10 μg/mL PI in water solution for 20 min. Finally, the slides were analyzed with a Leica DMi8 fluorescent microscope and LASX software (Leica, Germany) and comets were scored with CometScore 2.0 (Rex A. Hoover, www.rexhoover.com). At least 100 comets were scored per condition.
# SISO cells = assay: Fluorescence microscopy for lipid peroxidation (BODIPY 581/591); type: cell-based, human; conditions: 25 μM, 24 h
# Experimental: In another set of experiments, LPO was visualized by fluorescence microscopy with a dye for lipid peroxides, BODIPY 581/591. […] Together, our results point to apoptosis and not ferroptosis as the mechanism of cell death induced by 4.
# Fluorescence microscopy for the detection of lipid peroxidation: SISO cells (250 000 cells) were seeded out in 6‐well plates with an inserted coverslip. Cells were allow to attach for 24 h and then exposed to 25 μM 4 or 100 μM tert‐butyl‐hydroperoxide as a positive control. After 24 h coverslips were washed with PBS and stained with 1 μM BODIPY 581/591 in culture medium for 30 min. Cells on the coverslips were then mounted and examined with a Leica DMi8 fluorescence microscope at λ ex/em=460–500/512–542 nm for the oxidized BODIPY 581/591 and λ ex/em=540–581/592–668 for the reduced form.
smiles,measurement,setting,value
CCOc1c2c(c3cnc4cc(C)c(C)cc4n13)SSSSS2 [Compound 4],fraction of damaged plasmid,pBR322 plasmid; with 2 mM GSH,19%
same,fraction of damaged plasmid,pBR322 plasmid; without additional thiol,7%
same,percentage of intact DNA in comet head,HAP-1 cells,66%
same,lipid peroxidation (LPO),SISO cells,no indication for LPO
